Results published in patent US8153809B2, “Dihydropyridone ureas as P2X7 modulators” (Roche Palo Alto LLC, priority 2008, dated 2012).

Target: T1, P2X7 (UniProt Q99572)
T1 sequence (Q99572 1-595): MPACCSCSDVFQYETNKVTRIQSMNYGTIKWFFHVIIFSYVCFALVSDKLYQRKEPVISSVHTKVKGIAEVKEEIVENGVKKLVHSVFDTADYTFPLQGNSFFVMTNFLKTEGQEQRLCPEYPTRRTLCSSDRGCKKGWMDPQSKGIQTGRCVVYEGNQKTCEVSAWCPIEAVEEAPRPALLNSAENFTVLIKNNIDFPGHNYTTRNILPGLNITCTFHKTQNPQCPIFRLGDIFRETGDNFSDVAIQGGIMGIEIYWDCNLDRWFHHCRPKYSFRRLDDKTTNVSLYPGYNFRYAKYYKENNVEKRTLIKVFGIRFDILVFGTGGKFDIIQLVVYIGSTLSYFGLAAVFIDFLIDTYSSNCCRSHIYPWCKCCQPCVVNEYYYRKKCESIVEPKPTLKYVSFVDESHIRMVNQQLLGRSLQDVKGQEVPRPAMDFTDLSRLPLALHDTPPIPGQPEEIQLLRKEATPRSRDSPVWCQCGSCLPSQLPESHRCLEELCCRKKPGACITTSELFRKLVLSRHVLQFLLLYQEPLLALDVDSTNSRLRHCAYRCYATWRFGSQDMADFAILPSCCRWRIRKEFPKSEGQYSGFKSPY
Assay: pIC50 values for P2X7 (Table 1)
Format: cell-based
Experimental: Intracellular Calcium Flux (FLIPR) Assay
Compound and Reagent Preparation
Stock solutions of compounds were prepared from powders as a 10 mM DMSO stock solution. These solutions were stored at RT during the two week period of these experiments to prevent freeze-thaw of the DMSO stocks. The DMSO stocks were added to the appropriate assay buffer at a concentration of 10 μM, and then diluted serially to the final concentrations that were tested. […] The aqueous solutions of compounds as well as ATP (Sigma A7699) and BzATP (Sigma B6396) were prepared fresh for each day of experiment.
1321N1 cells stably expressing the full length human P2X7 gene (1321N1-hP2X7) and HEK293 cells stably expressing the full length rat P2X7 gene (HEK293-rP2X7) were obtained from the Roche Cell Culture Facility. 1321N1-hP2X7 cells were grown in Dulbecco's Modified Eagle's Medium (DMEM) high glucose supplemented with 10% FBS and 250 μg/mL G418. HEK293-rP2X7 cells were grown in DMEM/F-12 supplemented with 10% FBS, 1 mM CaCl2, 2 mM MgCl2, 2 mM L-Glutamine and 500 μg/ml G418. Cells were split such that they never became >70% confluent.
Intracellular Calcium Flux (FLIPR)
On the day prior to the experiment, 1321N1-hP2X7 or HEK293-rP2X7 cells were released into suspension with calcium-free PBS+Versene and washed by centrifugation with calcium-free PBS to remove the Versene.
On the day of the experiment, plates were washed with FLIPR buffer (calcium- and magnesium-free Hank's Balanced Salt Solution (HBSS) supplemented with 10 mM Hepes, 2.5 mM probenecid and 2 mM calcium chloride) using a BIO-TEK 96 channel plate washer and incubated with […] fluo-3 dye at 37° C. for one hr. The dye was then removed by plate washing and the cells were allowed to equilibrate for 20 min at room temperature with antagonist or vehicle (FLIPR buffer). Agonist (100 μM BzATP final concentration for hP2X7; 5 μM BzATP final concentration or rP2X7) was added online with the FLIPR and fluorescence measurements made at 1 sec intervals for 60 sec followed by 3 sec intervals for a further 4 min (5 min total). A final addition of 5 μM ionomycin was made and the maximal BzATP-evoked fluorescence normalized to the maximal ionomycin-evoked fluorescence.

SMILES | pIC50
COC(=O)c1cc(NC(=O)N2C=CC(=O)C[C@H]2c2ccc(F)cc2)c(Br)cc1Cl [Compound 27, 4-Bromo-2-chloro-5-{[(S)-2-(4-fluoro-phenyl)-4-oxo-3,4-dihydro-2H-pyridine-1-carbonyl]-amino}-benzoic acid methyl ester] | 7.26
COc1ccc(Br)c(NC(=O)N2C=CC(=O)C[C@H]2c2ccc(F)cc2)n1 [Compound 21, (S)-2-(4-Fluoro-phenyl)-4-oxo-3,4-dihydro-2H-pyridine-1-carboxylic acid (3-bromo-6-methoxy-pyridin-2-yl)-amide] | 6.32
COc1cc(Br)c(NC(=O)N2C=CC(=O)C[C@H]2c2cccc(F)c2)cc1OC [Compound 19, (S)-2-(3-Fluoro-phenyl)-4-oxo-3,4-diohydro-2H-pyridine-1-carboxylic acid (2-bromo-4,5-dimethoxy-phenyl)-amide] | 8.56
COCCN(C)Cc1cc(NC(=O)N2C=CC(=O)C[C@H]2c2ccc(F)cc2)c(C)cc1Cl [Compound 121, (S)-2-(4-Fluoro-phenyl)-4-oxo-3,4-dihydro-2H-pyridine-1-carboxylic acid (4-chloro-5-{[(2-methoxy-ethyl)-methyl-amino]-methyl}-2-methyl-phenyl)-amide] | 6.43
COC(=O)c1cc(Br)c(NC(=O)N2C=CC(=O)C[C@H]2c2ccc(F)cc2)cc1OC [Compound 38, 5-Bromo-4-{[(S)-2-(4-fluoro-phenyl)-4-oxo-3,4-dihydro-2H-pyridine-1-carbonyl]-amino}-2-methoxy-benzoic acid methyl ester] | 6.89
COc1ccc(NC(=O)N2C=CC(=O)C[C@H]2c2cccc(F)c2)cc1OC [Compound 88, (S)-2-(3-Fluoro-phenyl)-4-oxo-3,4-dihydro-2H-pyridine-1-carboxylic acid (3,4-dimethoxy-phenyl)-amide] | 6.32
COc1cc(NC(=O)N2C=CC(=O)CC2c2ccccc2)c(Br)cc1Cl (stereo not drawn) [Compound 2, 4-Oxo-2-phenyl-3,4-dihydro-2H-pyridine-1-carboxylic acid (2-bromo-4-chloro-5-methoxy-phenyl)-amide] | 6.425
O=C1C=CN(C(=O)Nc2cc(OCCO)c(Cl)cc2Br)[C@H](c2cccc(F)c2)C1 [Compound 50, (S)-2-(3-Fluoro-phenyl)-4-oxo-3,4-dihydro-2H-pyridine-1-carboxylic acid [2-bromo-4-chloro-5-(2-hydroxy-ethoxy)-phenyl]-amide] | 7.407
COc1cc(NC(=O)N2C=CC(=O)C[C@H]2c2ccc(F)cc2)c(Br)cc1S(C)(=O)=O [Compound 28, (S)-2-(4-Fluoro-phenyl)-4-oxo-3,4-dihydro-2H-pyridine-1-carboxylic acid (2-bromo-4-methanesulfonyl-5-methoxy-phenyl)-amide] | 6.435
Cc1ccc(S(=O)(=O)n2nc(C)c3cc(Br)c(NC(=O)N4C=CC(=O)C[C@H]4c4ccc(F)cc4)cc32)cc1 [Compound 23, (S)-2-(4-Fluoro-phenyl)-4-oxo-3,4-dihydro-2H-pyridine-1-carboxylic acid [5-bromo-3-methyl-1-(toluene-4-sulfonyl)-1H-indazol-6-yl]-amide] | 5.245
COc1ccc(S(C)(=O)=O)cc1NC(=O)N1C=CC(=O)CC1c1ccc(F)cc1 (stereo not drawn) [Compound 56, 2-(4-Fluoro-phenyl)-4-oxo-3,4-dihydro-2H-pyridine-1-carboxylic acid (5-methanesulfonyl-2-methoxy-phenyl)-amide] | 5.11

Continued, values first:

pIC50 | SMILES
6.185 | CNC(=O)c1cccc(NC(=O)N2C=CC(=O)C[C@H]2c2ccc(F)cc2)c1C [Compound 141, (S)-2-(4-Fluoro-phenyl)-4-oxo-3,4-dihydro-2H-pyridine-1-carboxylic acid (2-methyl-3-methylcarbamoyl-phenyl)-amide]
7.355 | O=C1C=CN(C(=O)Nc2cccc3c2CCO3)[C@H](c2ccc(F)cc2)C1 [Compound 152, (S)-2-(4-Fluoro-phenyl)-4-oxo-3,4-dihydro-2H-pyridine-1-carboxylic acid (2,3-dihydro-benzofuran-4-yl)-amide]
7.53 | Cc1ccccc1NC(=O)N1C=CC(=O)C[C@H]1c1ccc(F)cc1 [Compound 131, (S)-2-(4-Fluoro-phenyl)-4-oxo-3,4-dihydro-2H-pyridine-1-carbxoylic acid o-tolylamide]
7.35 | Cc1cc2ncccc2cc1NC(=O)N1C=CC(=O)C[C@H]1c1ccc(F)cc1 [Compound 74, (S)-2-(4-Fluoro-phenyl)-4-oxo-3,4-dihydro-2H-pyridine-1-carboxylic acid (7-methyl-quinolin-6-yl)-amide]
7.825 | Cc1cc2c(cc1NC(=O)N1C=CC(=O)C[C@H]1c1ccc(F)cc1)OCCN2C [Compound 143, (S)-2-(4-Fluoro-phenyl)-4-oxo-3,4-dihydro-2H-pyridine-1-carboxylic acid (4,6-dimethyl-3,4-dihydro-2H-benzo[1,4]oxazin-7-yl)-amide]
8.34 | Cc1c(Cl)cccc1NC(=O)N1C=CC(=O)C[C@H]1c1ccc(F)cc1 [Compound 138, (S)-2-(4-Fluoro-phenyl)-4-oxo-3,4-dihydro-2H-pyridine-1-carboxylic acid (3-chloro-2-methyl-phenyl)-amide]
8.023 | Cc1cc(Cl)c(OCCO)cc1NC(=O)N1C=CC(=O)C[C@H]1c1ccc(F)cc1 [Compound 92, (S)-2-(4-Fluoro-phenyl)-4-oxo-3,4-dihydro-2H-pyridine-1-carboxylic acid [4-chloro-5-(2-hydroxy-ethoxy)-2-methyl-phenyl]-amide]
5.975 | Cc1c2ccc(NC(=O)N3C=CC(=O)C[C@H]3c3ccc(F)cc3)c(Br)c2nn1C [Compound 151, (S)-2-(4-Fluoro-phenyl)-4-oxo-3,4-dihydro-2H-pyridine-1-carboxylic acid (7-bromo-2,3-dimethyl-2H-indazol-6-yl)-amide]
7.735 | Cc1cc(Cl)c(CO)cc1NC(=O)N1C=CC(=O)C[C@H]1c1ccc(F)cc1 [Compound 118, (S)-2-(4-Fluoro-phenyl)-4-oxo-3,4-dihydro-2H-pyridine-1-carboxylic acid (4-chloro-5-hydroxymethyl-2-methyl-phenyl)-amide]
6.67 | C[C@@H](O)c1cc(NC(=O)N2C=CC(=O)C[C@H]2c2ccc(F)cc2)c(Br)cc1Cl [Compound 84, (S)-2-(4-Fluoro-phenyl)-4-oxo-3,4-dihydro-2H-pyridine-1-carboxylic acid [2-bromo-4-chloro-5-((R)-1-hydroxy-ethyl)-phenyl]-amide]
8.565 | Cc1cc2ccn(C)c2cc1NC(=O)N1C=CC(=O)C[C@H]1c1ccc(F)cc1 [Compound 140, (S)-2-(4-Fluoro-phenyl)-4-oxo-3,4-dihydro-2H-pyridine-1-carboxylic acid (1,5-dimethyl-1H-indol-6-yl)-amide]
7.4325 | COc1cc(NC(=O)N2C=CC(=O)C[C@H]2c2ccc(F)cc2)c(Br)cc1Cl [Compound 5, (S)-2-(4-Fluoro-phenyl)-4-oxo-3,4-dihydro-2H-pyridine-1-carboxylic acid (2-bromo-4-chloro-5-methoxy-phenyl)-amide]
6.13 | COC(=O)c1cccc(NC(=O)N2C=CC(=O)C[C@@H]2c2ccc(F)cc2)c1C [Compound 94, 3-{[(R)-2-(4-Fluoro-phenyl)-4-oxo-3,4-dihydro-2H-pyridine-1-carbonyl]-amino}-2-methyl-benzoic acid methyl ester]
